From the supplement of paper PMC10307832

Experiments:
Experiment in all cases: relative viability (nuclei count vs DMSO), 5 days (fraction); higher = more cells survive
TPCA-1 = compound: C1=CC(=CC=C1C2=CC(=C(S2)NC(=O)N)C(=O)N)F [TPCA-1]
Method in brief: (§1)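 Nuclei counted with MetaXpress define viability as the ratio of treated to vehicle wells, given as a median across plates. The lung cancer cell lines were in 1536-well plates, pinned with five √10-spaced library-drug doses and imaged at 4× after 5 days and Hoechst staining. Plates passed with control CV below 25% and at least one doubling.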

[1] = compound: C1/C(=C\C2=CC=CS2)/C(=O)/C(=C/C3=CC=CS3)/C1
Method in brief: as §1

Lestaurtinib = compound: C[C@]12O[C@H](C[C@]1(O)CO)n1c3ccccc3c3c4c(c5c6ccccc6n2c5c31)CNC4=O [Lestaurtinib]
Method in brief: as §1

Cell Line | relative viability (TPCA-1; 0.04 µM) | relative viability (TPCA-1; 0.1265 µM) | relative viability (TPCA-1; 0.4 µM) | relative viability (TPCA-1; 1.265 µM) | relative viability (TPCA-1; 4 µM) | relative viability ([1]; 0.2 µM) | relative viability ([1]; 0.6325 µM) | relative viability ([1]; 2 µM) | relative viability ([1]; 6.325 µM) | relative viability ([1]; 20 µM) | relative viability (Lestaurtinib; 0.005 µM) | relative viability (Lestaurtinib; 0.01581 µM) | relative viability (Lestaurtinib; 0.05 µM) | relative viability (Lestaurtinib; 0.1581 µM) | relative viability (Lestaurtinib; 0.5 µM)
NCI-H1623 | 1.13 | 0.879 | 0.962 | 1.01 | 0.763 | 0.977 | 0.865 | 1.1 | 0.903 | 0.911 | 0.978 | 0.962 | 0.931 | 0.884 | 0.813
NCI-H3122 | 1.04 | 0.924 | 1 | 1.01 | 0.991 | 1.03 | 0.986 | 1.05 | 0.892 | 0.975 | 1.06 | 1.11 | 0.981 | 1.11 | 0.615
NCI-H2347 | 1.13 | 0.961 | 1.01 | 0.873 | 0.929 | 1.1 | 1.03 | 1.02 | 0.969 | 1.03 | 0.979 | 1.1 | 0.9 | 0.72 | 0.654
HCC-44 | 1.01 | 0.933 | 0.965 | 0.643 | 0.901 | 1.02 | 1 | 0.989 | 0.898 | 0.962 | 0.923 | 1.16 | 0.941 | 1.11 | 0.845
HCC-78 | 0.972 | 0.834 | 0.892 | 0.788 | 0.391 | 0.972 | 0.927 | 1.25 | 0.823 | 0.908 | 0.823 | 0.943 | 0.547 | 0.577 | 0.44
COR-L23 | 1.03 | 0.924 | 0.968 | 0.986 | 0.857 | 1.03 | 1.05 | 1 | 0.865 | 0.947 | 1.08 | 1.13 | 0.633 | 0.829 | 0.166
NCI-H1993 | 0.985 | 0.805 | 0.94 | 1.06 | 0.722 | 1.04 | 0.898 | 1.05 | 0.786 | 0.861 | 1.02 | 0.949 | 0.824 | 0.709 | 0.567
NCI-H2405 | 1.08 | 0.944 | 1.09 | 0.816 | 0.842 | 1.01 | 0.988 | 1.14 | 0.959 | 1.02 | 0.97 | 1.08 | 0.974 | 0.822 | 0.532
NCI-H2126 | 0.997 | 0.918 | 1.01 | 0.89 | 0.809 | 1.03 | 1.01 | 1.07 | 0.896 | 0.979 | 1.02 | 1.1 | 0.891 | 0.842 | 0.729
NCI-H1944 | 1.15 | 0.88 | 1.07 | 0.998 | 0.715 | 1.04 | 0.922 | 0.977 | 0.858 | 0.917 | 0.888 | 0.972 | 0.968 | 0.655 | 0.396
NCI-H2342 | 1 | 0.961 | 1.05 | 0.956 | 0.919 | 1.01 | 0.951 | 1.06 | 0.829 | 0.954 | 0.947 | 1.04 | 0.863 | 1.09 | 1.03
NCI-H358 | 1.34 | 0.832 | 0.984 | 0.767 | 0.401 | 1.09 | 0.915 | 0.963 | 0.754 | 0.933 | 0.839 | 0.748 | 0.493 | 0.397 | 0.207
NCI-H1734 | 1.17 | 0.848 | 1.1 | 1.03 | 0.553 | 1.02 | 1.01 | 1.03 | 0.891 | 0.984 | 0.993 | 0.956 | 0.66 | 0.563 | 0.262
A-427 | 1.1 | 0.94 | 1.11 | 0.89 | 0.312 | 1.03 | 1.05 | 1.05 | 0.954 | 1.01 | 1.05 | 1.13 | 0.792 | 0.435 | 0.199
RERF-LC-KJ | 1.02 | 0.895 | 0.982 | 0.93 | 0.826 | 0.984 | 1.04 | 1.02 | 0.878 | 0.927 | 1.03 | 1.09 | 0.847 | 0.827 | 0.558
NCI-H727 | 0.939 | 0.86 | 0.961 | 0.78 | 0.734 | 1.09 | 0.887 | 1.02 | 0.709 | 0.954 | 1.07 | 1.21 | 1.03 | 0.787 | 0.476
LCLC-97TM1 | 1.17 | 0.886 | 0.994 | 0.613 | 0.538 | 1.07 | 0.966 | 1.2 | 0.868 | 0.852 | 0.702 | 1.15 | 0.739 | 0.398 | 0.267
BEN | 1.01 | 0.873 | 1.05 | 1.08 | 0.774 | 0.935 | 1 | 1.11 | 0.848 | 0.934 | 0.993 | 1.11 | 0.888 | 0.8 | 0.278

Cell Line | relative viability (TPCA-1; 0.04 µM) | relative viability (TPCA-1; 0.1265 µM) | relative viability (TPCA-1; 0.4 µM) | relative viability (TPCA-1; 1.265 µM) | relative viability (TPCA-1; 4 µM) | relative viability ([1]; 0.2 µM) | relative viability ([1]; 0.6325 µM) | relative viability ([1]; 2 µM) | relative viability ([1]; 6.325 µM) | relative viability ([1]; 20 µM) | relative viability (Lestaurtinib; 0.005 µM) | relative viability (Lestaurtinib; 0.01581 µM) | relative viability (Lestaurtinib; 0.05 µM) | relative viability (Lestaurtinib; 0.1581 µM) | relative viability (Lestaurtinib; 0.5 µM)
NCI-H2023 | 1.16 | 0.946 | 1.13 | 0.85 | 0.509 | 1 | 1.04 | 1.07 | 0.827 | 0.837 | 1.02 | 0.978 | 0.874 | 0.746 | 0.201
LC-2-ad | 1.09 | 0.902 | 1.01 | 0.901 | 0.377 | 1.02 | 1.04 | 1.07 | 0.868 | 0.958 | 1.01 | 1.15 | 0.757 | 0.54 | 0.301
ABC-1 | 1.02 | 0.798 | 0.982 | 0.771 | 0.638 | 0.87 | 1.03 | 1.13 | 0.842 | 0.888 | 0.976 | 1.01 | 0.79 | 0.735 | 0.327
NCI-H647 | 0.972 | 0.818 | 1.07 | 0.867 | 0.48 | 1.01 | 1.01 | 1.02 | 0.84 | 0.85 | 0.918 | 0.988 | 0.513 | 0.407 | 0.172
NCI-H1755 | 0.951 | 0.941 | 1.01 | 0.922 | 0.765 | 1.02 | 0.987 | 1.04 | 0.807 | 0.999 | 1.02 | 1.05 | 0.965 | 0.736 | 0.351
EPLC-272H | 1.06 | 0.881 | 1.12 | 0.805 | 0.676 | 1.13 | 0.925 | 1.01 | 0.833 | 0.786 | 0.801 | 0.748 | 0.607 | 0.444 | 0.304
NCI-H1437 | 1.01 | 1.01 | 1.03 | 0.971 | 0.887 | 0.984 | 0.965 | 0.949 | 0.82 | 0.974 | 1.03 | 1.15 | 0.914 | 0.89 | 0.835
EKVX | 1.05 | 0.829 | 1.04 | 0.815 | 0.737 | 0.984 | 0.928 | 1.15 | 0.772 | 0.961 | 1 | 1.09 | 1.05 | 1.01 | 0.663
NCI-H1651 | 1.05 | 0.921 | 0.955 | 1.01 | 0.877 | 0.978 | 1.07 | 0.985 | 0.861 | 0.949 | 0.989 | 1.05 | 0.81 | 1.07 | 0.69
HCC-15 | 1.14 | 0.926 | 1.04 | 0.887 | 0.55 | 1.04 | 1.04 | 1.03 | 0.87 | 0.977 | 1.08 | 1.18 | 0.873 | 0.824 | 0.183
LCLC-103H | 1.1 | 0.933 | 1.06 | 0.941 | 1.02 | 1.04 | 1.02 | 1.09 | 0.87 | 0.986 | 1.1 | 1.08 | 0.937 | 0.693 | 0.519
NCI-H23 | 1.1 | 0.846 | 0.956 | 0.782 | 0.231 | 1.13 | 1.21 | 1.11 | 0.798 | 0.962 | 0.999 | 1.1 | 0.817 | 0.594 | 0.378
NCI-H1792 | 1.22 | 0.894 | 0.914 | 0.568 | 0.42 | 1.03 | 1.02 | 1.09 | 0.854 | 0.955 | 0.744 | 1.36 | 0.504 | 0.63 | 0.433
NCI-H596 | 1.09 | 0.978 | 1.05 | 1.17 | 0.842 | 1 | 0.994 | 1.11 | 0.85 | 0.964 | 1.02 | 0.889 | 0.872 | 1.06 | 1.02
NCI-H1563 | 0.886 | 0.964 | 0.971 | 0.941 | 0.956 | 1.01 | 0.876 | 1.03 | 0.936 | 0.998 | 1.06 | 1.02 | 0.913 | 0.972 | 0.72
NCI-H460 | 1.03 | 0.984 | 1.01 | 1.04 | 0.889 | 1.05 | 1.01 | 1.05 | 0.823 | 0.971 | 1.08 | 1.09 | 1.04 | 1.08 | 0.836
HCC-366 | 1.03 | 0.995 | 1.01 | 1.01 | 0.152 | 1.02 | 1.05 | 1.1 | 0.827 | 1.04 | 1.06 | 1.01 | 1.02 | 1.01 | 0.829
